Source: patent US4626547A, “Antibiotic AM-2604-A, an anti-trichomonas agent, anti-caccidium agent, anti-viral agent and anti-fungal agent containing the same and methods of use of the same” (The Kitasato Institute, priority 1982, dated 1986)
Converted amounts (≈) assume the structure as drawn. “Also recorded” adds a separate entry of the source.

What was measured:
[1] = test system: fungi; conditions: known antibiotic substances, literature; cited from earlier work
[2] = test system: Newcastle disease virus (NDV); experiment: microbe, parasite or virus in culture; type: cell-based; conditions: avian paramyxovirus 1, 96 h; read-out: 50% Effective Dose (ED50)
[3] = test system: DIE strain of vaccinia virus (Vac-DIE); experiment: microbe, parasite or virus in culture; type: cell-based; conditions: Orthopoxvirus vaccinia, 96 h; read-out: 50% Effective Dose (ED50)
[4] = test system: Trichomonas foetus; experiment: Infection-therapy test of Trichomonas foetus-infected mice; type: in vivo, mice infected with Trichomonas foetus; conditions: for Number of Mice That Died / Cured Mice / Living Mice with Formation of Ascites / Mice with Trichomonas foetus: oral; for Cured Mice / Living Mice with Formation of Ascites / Mice with Trichomonas foetus: 7 days
Procedure: An infection-therapy test of Trichomonas foetus-infected mice was performed as follows:
Mice were divided into groups of ten. Trichomonas foetus was cultivated at 37° C. on a Trichocel broth with 5% inactivated calf serum added (produced by BBL Co.) for 48 hours. One milliliter of the Trichomonas foetus-containing solution (4×10^6 cells/ml) was injected intraperitoneally into mice having a weight of about 20 g. […]
The infection-therapy effect was judged as follows:
Seven days after the injection of Trichomonas foetus, the formation of ascites was examined. In the case of mice in which ascites was formed, the ascites were taken out and the presence of Trichomonas foetus was examined using a microscope.

[5] = test system: Herpes virus Type No. 1 (HSV-1); experiment: Antiviral plaque-formation reduction in CE cells; type: cell-based; conditions: Human alphaherpesvirus 1, 72 h, 20 h pretreatment, 3 days, read-out: 50% Effective Dose (ED50)
[6] = test system: DNA or RNA viruses; experiment: Antiviral activity (summary); type: cell-based, virus
[7] = Solubility in solvents; type: physicochemical
[8] = test system: IHD strain of vaccinia virus (Vac-IHD); experiment: microbe, parasite or virus in culture; type: cell-based; conditions: Orthopoxvirus vaccinia, 96 h; read-out: 50% Effective Dose (ED50)
[9] = test system: Vesicular stomatitis virus (VSV); experiment: microbe, parasite or virus in culture; type: cell-based; conditions: 48 h, read-out: 50% Effective Dose (ED50)
[10] = test system: Sindbis virus (Sb); experiment: Antiviral plaque-formation reduction in CE cells; type: cell-based; conditions: 48 h, 20 h pretreatment, 2 days, read-out: 50% Effective Dose (ED50)
[11] = test system: fungi; experiment: Antifungal activity (summary); type: cell-based
[12] = test system: Piricularia oryzae; experiment: microbe, parasite or virus in culture; type: cell-based
[13] = test system: Alternaria kikuchiana; experiment: MIC by agar dilution method; type: cell-based
Text: (§1) The minimum inhibitory concentrations (MIC) of the antibiotic substance as determined by the agar dilution method are shown in Table 1 below.

[14] = test system: Micrococcus luteus ATCC 9341; experiment: MIC by agar dilution method; type: cell-based; conditions: ATCC9341
Text: as §1

[15] = test system: Mycobacterium smegmatis ATCC 607; experiment: MIC by agar dilution method; type: cell-based; conditions: Mycolicibacterium smegmatis, ATCC607
Text: as §1

[16] = test system: Candida albicans; experiment: MIC by agar dilution method; type: cell-based
Text: as §1

[17] = test system: Microsporum gypseum; experiment: MIC by agar dilution method; type: cell-based; conditions: Nannizzia gypsea
Text: as §1

[18] = test system: Trichophyton interdigitale; experiment: MIC by agar dilution method; type: cell-based
Text: as §1

[19] = test system: Fusarium oxysporum; experiment: MIC by agar dilution method; type: cell-based
Text: as §1

[20] = test system: Staphylococcus aureus ATCC 65389; experiment: MIC by agar dilution method; type: cell-based; conditions: ATCC65389
Text: as §1

[21] = test system: Mucor racemosus; experiment: MIC by agar dilution method; type: cell-based
Text: as §1

[22] = test system: Escherichia coli NIHJ; experiment: MIC by agar dilution method; type: cell-based
Text: as §1

[23] = test system: Monilinia fructicola; experiment: MIC by agar dilution method; type: cell-based
Text: as §1

[24] = test system: Proteus vulgarius IFO 3167; experiment: MIC by agar dilution method; type: cell-based
Text: as §1

[25] = test system: Botrytis cinerea; experiment: MIC by agar dilution method; type: cell-based
Text: as §1

[26] = test system: Aspergillus niger; experiment: MIC by agar dilution method; type: cell-based
Text: as §1

[27] = test system: Saccharomyces sake; experiment: MIC by agar dilution method; type: cell-based
Text: as §1

[28] = test system: Bacillus subtilis ATCC 6633; experiment: MIC by agar dilution method; type: cell-based; conditions: ATCC6633
Text: as §1

[29] = test system: Gram-negative bacteria; experiment: Antibacterial activity against Gram-negative bacteria (summary); type: cell-based
[30] = Toxicity testing, intraperitoneal injection; conditions: mouse, in vivo, ip, mice
Procedure: The toxicity testing of the antibiotic AM-2604-A substance was performed using mice by the intraperitoneal injection method.

[31] = test system: Xanthomonas oryzae; experiment: microbe, parasite or virus in culture; type: cell-based
[32] = test system: Western equine encephalitis virus (WEE); experiment: microbe, parasite or virus in culture; type: cell-based; conditions: 48 h, read-out: 50% Effective Dose (ED50)
[33] = test system: Gram-positive bacteria; experiment: Antibacterial activity against Gram-positive bacteria (summary); type: cell-based
[34] = test system: Herpes virus Type No. 2 (HSV-2); experiment: Antiviral plaque-formation reduction in CE cells; type: cell-based; conditions: Human alphaherpesvirus 2, 72 h, 20 h pretreatment, 3 days, read-out: 50% Effective Dose (ED50)
[35] = test system: Eimeria tenella; experiment: Effectiveness on coccidium-infected chicken; type: in vivo, white leghorn male chicks infected with Eimeria tenella; conditions: for Disorder of Cecum, grade - (Normal): chicks per group with grade -; for Disorder of Cecum, grade ± (Minor): chicks per group with grade ±; for Ratio of Increment of Weight: non-infected control = 1.00
Procedure: The potency of the antibiotic substance on coccidium-infected chickens was determined as follows:
Two-week-old white leghorn male chicks were divided into four groups of ten each. The feed used in this assay was a commercially available chick-breeding standard feed (major components: 19% crude protein, 2.5% crude fat, 5.0% crude fiber, 8.0% crude ash, 0.7% calcium, and 0.55% phosphorus).
One day after the start of feeding, 2×10^4 mature oocysts of Eimeria tenella per chick were orally administered to the chicks of the groups (Groups 1, 2 and 3) except for a non-infected control group (Group 4). Thereafter, the chicks of Groups 1 and 2 were bred by feeding the standard feed containing 0.005% and 0.0l% of the antibiotic substance, respectively, and Groups 3 and 4 were bred by feeding only the standard feed.
During the breeding period, the weight of each chick was measured, and the blood in the feces was observed. Furthermore, the number of oocysts in the feces 7 days after the infection of the oocysts were counted, and the disorder of cecum was examined by necropsy. In this way, the anti-coccidium action of the antibiotic substance was determined.
The items in Table 3 are as follows: [formula]
The amount of blood from the intestine of the chick is judged from the number of blood stains.
+ Minor, but slight disorder is observed.
++ Moderate hypertrophy is observed.
+++ Serious (disorder is very significant)
Number of oocysts per gram of the feces 7 days after the infection

[36] = drug amount administered 4 mg/kg
[37] = drug amount administered 8 mg/kg

Compound: COC1=CC(C)=CC(C)C(O)C(C)CC(C)=CC=CC(OC)C(C(C)C(O)C(C)C2(O)CC(OC(=O)/C=C/C(=O)NC3=C(O)CCC3=O)C(C)C(C(C)C)O2)OC1=O (stereo not shown) [Setamycin]
- activity against fungi of known antibiotics (in words) [1]: active

Compound: C/C=C/C1OC(O)(C(C)C(O)C(C)C2OC(=O)C(OC)=CC(C)=CC(C)C(O)C(CC)C(O)C(C)CC(C)=CC=CC2OC)CC(OC(=O)/C=C/C(=O)NC2=C(O)CCC2=O)C1C (stereo not shown) [AM-2604-A]
- EC50 [2]: 0.0003 µg/mL (≈ 0.000339 µM)
- EC50 [3]: 0.0003 µg/mL (≈ 0.000339 µM)
- Number of Mice That Died [4, 36]: 2/10
- Cured Mice [4, 36]: 5/10
- Living Mice with Formation of Ascites [4, 36]: 2/10
- Mice with Trichomonas foetus [4, 36]: 5/10
- Number of Mice That Died [4, 37]: 1/10
- Cured Mice [4, 37]: 8/10
- Living Mice with Formation of Ascites [4, 37]: 1/10
- Mice with Trichomonas foetus [4, 37]: 2/10
- anti-trichomonas action (in words) ([4]; summary of Table 4): excellent anti-trichomonas action; also recorded: active
- EC50 [5]: 0.0003 µg/mL (≈ 0.000339 µM)
- activity against viruses (in words) [6]: high inhibitory activity; also recorded: active
- Solubility in organic solvents such as chloroform, acetone, and ethyl acetate ([7]; chloroform, acetone, ethyl acetate): Soluble
- Solubility in lower alcohols ([7]; lower alcohols): sparingly soluble
- Solubility in n-hexane and water ([7]; n-hexane and water): insoluble
- EC50 [8]: 0.0003 µg/mL (≈ 0.000339 µM)
- EC50 [9]: 0.0003 µg/mL (≈ 0.000339 µM)
- EC50 [10]: 0.0005 µg/mL (≈ 0.000564 µM)
- activity against fungi (in words) [11]: active
- MIC [12]: 12.5 µg/mL (≈ 14.1 µM)
- MIC [13]: > 50 µg/mL
- MIC [14]: > 100 µg/mL
- MIC [15]: > 100 µg/mL
- MIC [16]: > 100 µg/mL
- MIC [17]: 50 µg/mL (≈ 56.4 µM)
- MIC [18]: 50 µg/mL (≈ 56.4 µM)
- MIC [19]: > 100 µg/mL
- MIC [20]: > 100 µg/mL
- MIC [21]: 50 µg/mL (≈ 56.4 µM)
- MIC [22]: > 100 µg/mL
- MIC [23]: 12.5 µg/mL (≈ 14.1 µM)
- MIC [24]: > 100 µg/mL
- MIC [25]: > 50 µg/mL
- MIC [26]: > 100 µg/mL
- MIC [27]: 100 µg/mL (≈ 113 µM)
- MIC [28]: > 100 µg/mL
- activity against Gram-negative bacteria (in words) [29]: little antibacterial activity
- LD50 [30]: 3 mg/kg
- MIC [31]: > 50 µg/mL
- EC50 [32]: 0.0003 µg/mL (≈ 0.000339 µM)
- activity against Gram-positive bacteria (in words) [33]: little antibacterial activity; also recorded: almost inactive
- EC50 [34]: 0.0003 µg/mL (≈ 0.000339 µM)
- Increment of Weight ([35]; Group 1, 0.005% in feed): 1.83
- Disorder of Cecum, grade + (Minor, but slight disorder is observed) ([35]; Group 1, 0.005% in feed, chicks per group with grade +): 1/10
- Disorder of Cecum, grade - (Normal) ([35]; Group 1, 0.005% in feed): 8/10
- Disorder of Cecum, grade ± (Minor) ([35]; Group 1, 0.005% in feed): 1/10
- Ratio of Increment of Weight ([35]; Group 1, 0.005% in feed): 0.99
- Increment of Weight ([35]; Group 2, 0.01% in feed): 1.86
- Number of Oocysts (on the average) ([35]; Group 2, 0.01% in feed, 7 days after the infection): 0 per gram of the feces
- Disorder of Cecum, grade - (Normal) ([35]; Group 2, 0.01% in feed): 9/10
- Disorder of Cecum, grade ± (Minor) ([35]; Group 2, 0.01% in feed): 1/10
- Ratio of Increment of Weight ([35]; Group 2, 0.01% in feed): 1.01
- anticoccidium action (in words) ([35]; summary of Table 3): excellent anticoccidium action; also recorded: active
